This test concerns CA-MRSA clinical isolates and a wild type CA-MRSA strain. The experiment in a line: AST-Chip antibiotic susceptibility test of CA-MRSA clinical isolates (FUN-1 fluorescence). Type of test: cell-based, Staphylococcus aureus. To be noted: isolates A32, K2 and B2 compared with isolates I27, D1, M2 and WT, 8 μg/ml, incubated 16 h. The protocol: The key steps in chip fabrication are described in below (these methods are also described in Srinivasan et al., which is incorporated by reference herein). The fabrication included three steps: (i) modification of the surface of glass slides with poly(styrene-co-maleic anhydride) (PSMA); (ii) printing spots of a 30 nl mixture of poly-l-lysine and barium chloride to create a “tie-layer” using a robotic microarrayer (Microsys, Digilab); and (iii) printing a 30 nl mixture of 0.5% alginate solution, optimized-growth medium and antimicrobial agents at various concentrations on top of the tie-layer. […]
The AST-Chip was benchmarked by evaluating the antimicrobial-susceptibility of a wild type strain of Staphylococcus aureus (UAMS-1) and CA-MRSA (USA 300) against methicillin. […] After incubation, the cell density at different spots was quantified using FUN-1, a vital fluorescent dye with excitation and emission wavelength that is compatible with a standard microarray scanner and facilitating faster read out (FIG. 6A). The fluorescence intensity of control (no drug) and sodium hypochlorite-treated dead biofilms were set at 100% and 0%, respectively. The inhibitory effects of the antimicrobial agents were determined by the reduction in fluorescence intensity in comparison to the controls (FIG. 6B). […]

Experimental findings from patent US10577638B2, “Systems, devices, and methods for microbial detection and identification, and antimicrobial susceptibility testing” (Board of Regents, The University of Texas System, priority 2013, dated 2020) are described below.

For `CN[C@H](CC(C)C)C(=O)N[C@H]1C(=O)N[C@@H](CC(N)=O)C(=O)N[C@H]2C(=O)N[C@H]3C(=O)N[C@H](C(=O)N[C@H](C(=O)O)c4cc(O)cc(O)c4-c4cc3ccc4O)[C@H](O)c3ccc(c(Cl)c3)Oc3cc2cc(c3O[C@@H]2O[C@H](CO)[C@@H](O)[C@H](O)[C@H]2O[C@H]2C[C@](C)(N)[C@H](O)[C@H](C)O2)Oc2ccc(cc2Cl)[C@H]1O` [vancomycin], the “relative susceptibility of isolates to the drug” value is on record as “less susceptible”.
